According to US5506217A, “Phosphonates as anti-cancer agents” (The University of British Columbia, priority 1994, dated 1996):

Experiments:
P388 tumor cells = test: colonogenic cell survival assay; format: cell-based; conditions: Mus musculus, 120 h, P388, soft agar, 5 days, read-out: Number of colonies Formed (% of Control)
Method: (§1) Inhibition of colony formation in soft agar medium (colonogenic cell survival assay) is a more rigorous and direct measurement of cell kill or growth inhibition, and reflects the anti-cancer activity of the test compound. Briefly, tumor cells were cultured in petri dishes in methylcellulose, with or without a phosphonate test compound, and the number of colonies formed during a 5-day incubation period were counted.
The efficacy of 4-hexadecylthio-3-methoxybutane phosphonocholine on the growth of a mouse […] tumor was evaluated. The P388 cell line was cultured in a soft agar in the presence and absence of various concentrations of thioalkylphosphonate for 5 days, the number of tumor colonies formed during this period of time was registered.

[1] = test system: RPMI7915 cells (human melanoma); test: effect of S-thioalkylphosphonate on tumor cell line (% of control); format: cell-based
L1210 tumor cells = test: colonogenic cell survival assay; format: cell-based; conditions: Mus musculus, 120 h, L1210, soft agar, read-out: Number of Colonies Formed (% of Control)
Method: as §1
The effectiveness of S-thioalkylphosphonate on the growth of a lymphoma cell line was also investigated. L1210 is a mouse B-Cell tumor (lymphoma), was tested in soft agar for susceptibility to the cytotoxic action of thioalkylphosphonate.

WEHI-3B cells = test: WEHI-3B tumor growth under the skin in mice (S-thioalkylphosphonate); format: in vivo
Method: We also provide data on the activity of S-thioalkylphosphonate to delay growth of tumor in the mice. WEHI-3B cells were grown in mice under the skin. Three days after the injection of cancer cells the mice received daily 10 mg/kg thialkylphosphonate for 21 days. The control mice received the saline alone instead of the drug. After 21 days, the tumor volume was measured. […] The tumor volume was measured in CM^3.

[2] = test system: human colon carcinoma (HT29); test: effect of S-thioalkylphosphonate on tumor cell line (% of control); format: cell-based; conditions: read-out: HT29 cells (% of control)

## CCCCCCCCCCCCCCCCSCC(CCP(=O)([O-])OCC[N+](C)(C)C)OC (stereo not shown) [S-Thioalkylphosphonocholine, 4-hexadecylthio-3-methoxybutane phosphonocholine]
P388 tumor cells; 0.62 μM
  activity at 0.62 µM: 55%
P388 tumor cells; 1.25 μM
  activity at 1.25 µM: 43.7%
P388 tumor cells; 2.5 μM
  activity at 2.5 µM: 41%
P388 tumor cells; 5 μM
  activity at 5 µM: 29%
P388 tumor cells; 10 μM
  activity at 10 µM: 3%
P388 tumor cells; 20 μM
  activity at 20 µM: 1%
[1]; RPMI-7951, 0.6 μM
  activity at 0.6 µM: 98%
[1]; RPMI-7951, 1.25 μM
  activity at 1.25 µM: 80%
[1]; RPMI-7951, 2.5 μM
  activity at 2.5 µM: 78%
[1]; RPMI-7951, 5 μM
  activity at 5 µM: 63%
[1]; RPMI-7951, 10 μM
  activity at 10 µM: 40%
[1]; RPMI-7951, 20 μM
  activity at 20 µM: 29%
[1]; RPMI-7951, 40 μM
  activity at 40 µM: 0%
L1210 tumor cells; 0.65 μM
  activity at 0.65 µM: 65%
L1210 tumor cells; 1.25 μM
  activity at 1.25 µM: 47%
L1210 tumor cells; 2.5 μM
  activity at 2.5 µM: 30.5%
L1210 tumor cells; 5 μM
  activity at 5 µM: 30%
L1210 tumor cells; 10 μM
  activity at 10 µM: 20.5%
L1210 tumor cells; 20 μM
  activity at 20 µM: 14%
WEHI-3B cells; after 21 days, daily 10 mg/kg
  reduction of tumor size: about 50%
WEHI-3B cells; daily 10 mg/kg for 21 days, from three days after injection of cancer cells
  Tumor Volume at Day 21: .0359 ± 0.128 cm^3
[2]; HT-29, 0.6 μM
  activity at 0.6 µM: 99%
[2]; HT-29, 1.25 μM
  activity at 1.25 µM: 83%
[2]; HT-29, 2.5 μM
  activity at 2.5 µM: 71%
[2]; HT-29, 5 μM
  activity at 5 µM: 54%
[2]; HT-29, 10 μM
  activity at 10 µM: 45%
[2]; HT-29, 20 μM
  activity at 20 µM: 18%
[2]; HT-29, 40 μM
  activity at 40 µM: 1%
